“And” between values parts separate entries of the source, which are not always exact repeats. Identical values can stand only once. Where only a bound is given, the exact number is not on record here.

For orientation: AC50 means the concentration giving half of the maximal activity seen.

The assay relates to Clone20-Shn3RL cells, Renilla luciferase luminescence, 24 h. The experiment in a line: non-specific 3'UTR reporter inhibition in Clone20-Shn3RL – cell-based, Renilla luciferase, cherry-picked, counter-screen for Shn3 inhibitor project, dose response (AID 624133). For orientation: A counterscreen serves to expose hits that act by an unwanted route or on another target.
For the compound `CC1=CC2OC3CC4OC(=O)C=CC=CC(C(C)O)OCC(O)C5(C)OC5C(=O)OCC2(CC1O)C4(C)C31CO1` (centres undefined), the half-maximal activity concentration (AC50) is under 0.26 µM.
The figure for `CC(=O)OC[C@]12CCC(C)=C[C@H]1O[C@@H]1[C@H](O)[C@@H](OC(C)=O)[C@@]2(C)[C@]12CO2` is under 0.26 µM; for `CCN1CCN(Cc2ccc(NC(=O)c3cc(NC(=O)c4cc5cccc(OC)c5o4)cc(OC)c3)cc2C(F)(F)F)CC1` it is 25.1 µM and 9.12 µM; for `C[C@H]1[C@@H](OS(=O)(=O)O)C[C@@H]2C[C@H]([C@@H](O)c3cc(=O)[nH]c(=O)[nH]3)NC3=NC[C@H]1N32` it is 3.1 µM.
Turning to `CC1=CC2OC3CC4OC(=O)C=CC=CC(C(C)O)OCC(O)C(C)CC(=O)OCC2(CC1O)C4(C)C31CO1` (centres undefined), the AC50 is under 0.26 µM.
For the compound `CC(=O)OC1CC2OC3C=C(C)CCC3(C)C1(C)C21CO1` (centres undefined), the AC50 was 3.25 µM.
For `CC(=O)OCC12CC(OC(=O)CC(C)C)C(C)=CC1OC1C(O)C(OC(C)=O)C2(C)C12CO2` (centres undefined) the value was under 0.26 µM; for `CC1=CC2OC3CC4OC(=O)C=CC=CC(=O)OCCC(C)C(O)C(=O)OCC2(CC1O)C4(C)C31CO1` (centres undefined), 4.79 µM.
For `CC(=O)OC1C(=O)OCC23CCC4(C)OC4C2OC2CC(OC(=O)C=CC=CC(=O)OCCC1C)C3(C)C21CO1` (centres undefined), the AC50 is under 0.26 µM.

(Values after PubChem BioAssay AID624133 (Broad Institute, 2012).)
